Reference: US20200123137A1, “DEUTERATED CFTR MODULATORS AND METHODS OF USE” (ABBVIE S.À.R.L., priority 2016, published 2020)

What was measured:
[1] = biological target: F508delCFTR (Homo sapiens, UniProt P13569, DEL508-508); assay: Cell Surface Expression-Horse Radish Peroxidase (CSE-HRP) assay; assay type: cell-based; details: CFBE41o-F508delCFTR-HRP cells
Procedure: A cellular assay for measuring the F508delCFTR cell surface expression after correction with test compounds was developed in human lung derived epithelial cell line (CFBE41o-) (Veit G et al, (2012) Mol Biol Cell. 23(21): 4188-4202). This was achieved by expressing the F508delCFTR mutation along with a horseradish peroxidase (HRP) in the fourth exofacial loop and then measuring the HRP activity using luminescence readout from these cells, CFBE41o-F508delCFTR-HRP, that were incubated overnight with the test corrector compounds. […] Post incubation, the plates were washed 5 x times with Dulbecco's phosphate buffered saline (DPBS), followed by the addition of the HRP substrate, luminol (50 μL), and measuring the HRP activity using luminescence readout on EnVision® Multilabel Plate Reader (Perkin Elmer; product number 2104-0010). The raw counts from the experiment are analyzed using Accelrys® Assay Explorer v3.3. […]
The % activity measured at each of the 8 test concentrations of the test compound was normalized to the on-plate positive control using the following formula: […]
The maximum % activity achieved for the test compound at any tested concentration is presented in Table 1 along with the EC50 calculated using the following general sigmoidal curve with variable Hill slope equation (described as Model 42 in the Accelrys® Assay Explorer v3.3 software): […]

[2] = biological target: T1, F508del/F508del CFTR (Homo sapiens, UniProt P13569, DEL508-508); assay: Transepithelial Clamp Circuit (TECC-24) conductance assay on primary human bronchial epithelial cells; assay type: cell-based; details: primary hBE cells F508del/F508del
T1 construct: cells isolated from CF patients with the homozygous mutation; endogenous in cells; host or cells: primary human bronchial epithelial (hBE) cells from F508del/F508del CF patients
T1 sequence (P13569 with tags, fused parts or gaps DEL508-508): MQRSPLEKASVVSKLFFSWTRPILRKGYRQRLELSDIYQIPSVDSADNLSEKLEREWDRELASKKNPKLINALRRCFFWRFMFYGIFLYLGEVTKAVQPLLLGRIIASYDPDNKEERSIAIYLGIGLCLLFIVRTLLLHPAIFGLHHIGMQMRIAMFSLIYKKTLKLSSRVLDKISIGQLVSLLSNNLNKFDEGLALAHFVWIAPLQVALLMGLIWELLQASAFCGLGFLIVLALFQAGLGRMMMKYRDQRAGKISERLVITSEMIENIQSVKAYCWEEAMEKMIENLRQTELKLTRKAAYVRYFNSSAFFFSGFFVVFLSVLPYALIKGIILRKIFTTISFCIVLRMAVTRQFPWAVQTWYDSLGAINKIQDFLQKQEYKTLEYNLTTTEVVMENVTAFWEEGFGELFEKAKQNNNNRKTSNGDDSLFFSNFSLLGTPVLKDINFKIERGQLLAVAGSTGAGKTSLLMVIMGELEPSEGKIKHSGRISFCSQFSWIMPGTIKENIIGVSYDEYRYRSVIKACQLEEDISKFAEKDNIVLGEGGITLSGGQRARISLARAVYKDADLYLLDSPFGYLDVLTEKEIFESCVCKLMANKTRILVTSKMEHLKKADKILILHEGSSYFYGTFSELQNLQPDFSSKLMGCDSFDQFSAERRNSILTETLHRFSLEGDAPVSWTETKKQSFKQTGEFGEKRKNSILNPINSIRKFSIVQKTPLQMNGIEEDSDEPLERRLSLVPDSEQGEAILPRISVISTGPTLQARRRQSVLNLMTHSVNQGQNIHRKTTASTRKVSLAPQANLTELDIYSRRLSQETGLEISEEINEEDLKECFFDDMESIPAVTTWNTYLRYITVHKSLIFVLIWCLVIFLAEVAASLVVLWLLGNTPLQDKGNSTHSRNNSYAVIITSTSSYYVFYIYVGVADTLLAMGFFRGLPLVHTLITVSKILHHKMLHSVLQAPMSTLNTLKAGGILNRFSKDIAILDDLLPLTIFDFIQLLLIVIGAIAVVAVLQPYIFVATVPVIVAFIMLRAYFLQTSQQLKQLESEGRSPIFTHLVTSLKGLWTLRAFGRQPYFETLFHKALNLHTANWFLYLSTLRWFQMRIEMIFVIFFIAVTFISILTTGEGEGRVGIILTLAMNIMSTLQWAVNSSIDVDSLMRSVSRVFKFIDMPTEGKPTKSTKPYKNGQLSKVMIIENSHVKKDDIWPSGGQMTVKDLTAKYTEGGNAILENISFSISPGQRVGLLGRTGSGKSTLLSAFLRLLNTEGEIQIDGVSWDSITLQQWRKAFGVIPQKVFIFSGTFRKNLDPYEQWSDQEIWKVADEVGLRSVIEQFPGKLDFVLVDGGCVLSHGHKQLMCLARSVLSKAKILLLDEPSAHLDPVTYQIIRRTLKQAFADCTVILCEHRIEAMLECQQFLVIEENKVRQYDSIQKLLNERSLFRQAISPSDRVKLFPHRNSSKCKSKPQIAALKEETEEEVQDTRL
Source text: A cell based assay using the primary human bronchial epithelial cells (hBE) was used as a secondary assay to test novel F508delCFTR correctors for their activity on primary hBE cells with F508del/F508del CFTR mutation. The assay used a TECC-24 (Transepithelial Clamp Circuit for 24 wells) instrument that measures the functionality of the mutated channel by measuring the equivalent short circuit current (Ieq) generated by the polarized epithelial cells. The instrument works by measuring the transepithelial potential difference (Vt) and transepithelial resistance (Rt) in an open circuit format, and the Ieq is calculated by using Ohms law (Ieq=Vt/Rt). The assay was run in a 24-well format and all 24-wells were measured at the same time point giving a higher throughput for this assay.
Primary human bronchial epithelial (hBE) cells from F508del/F508delCFTR patients were expanded from 1×10^6 to 250×10^6 cells (Neuberger T, Burton B, Clark H and VanGoor F; Cystic Fibrosis, Methods in Mole Biol 741; eds. Amaral M D and Kunzelmann K, 2011). […]
The % activity measured at each of the 6 test concentrations of the test compound was normalized to the on-plate positive control using the following formula: […]

Sequence of F508delCFTR (P13569 with tags, fused parts or gaps DEL508-508): as above

`[2H]c1cc(C(=O)O)cc([2H])c1C1Oc2cc(OC(F)F)c([2H])c([2H])c2C([2H])(NC(=O)C2(c3ccc4c(c3)OC(F)(F)O4)CC2)C1([2H])[2H]` [Example 1, 4-[(2R,4R)-4-({[1-(2,2-difluoro-1,3-benzodioxol-5-yl)cyclopropyl]carbonyl}amino)-7-(difluoromethoxy)(3,3,4,5,6-^2H5)-3,4-dihydro-2H-chromen-2-yl](3,5-^2H2)benzoic acid] gave an EC50 ([1]; F508delCFTR cell surface expression, 18-24 hours at 33° C., luminescence readout) of 27 nM, a Maximum % activity ([1]; maximum at any tested concentration, normalized to on-plate positive control (3 μM)) of 145% and an EC50 ([2]; 18-24 hours at 37° C., equivalent short circuit current (Ieq), with control potentiator) of 13 nM. It also gave a Maximum % activity ([2]; relative to positive control (0.15 μM) coupled with control potentiator = 100%) of 96%.
